Source: ChEMBL document CHEMBL4393695, “Thiazole orange - Spermine conjugate: A potent human telomerase inhibitor comparable to BRACO-19” (Eur J Med Chem, 2019)
Active and inactive are the calls of the source. The rule behind the calls is not given here.

What was measured:
Quadruplex DNA [1] = assay: Binding affinity to G-quadruplex G1 DNA (unknown origin) assessed as melting temperature at compound to DNA ratio of 4:1 in presence of 150 mM Na+ by circular dichroism thermal denaturation analysis (reference value: 57.4 degC); type: nucleic-acid assay
HeLa [2] = assay: Inhibition of DNA polymerase activity in human HeLa cell lysate at 6.25 uM in presence of [32P]-labeled template primer by TRAP assay; type: subcellular
Quadruplex DNA [3] = assay: Binding affinity to G-quadruplex G2 DNA (unknown origin) assessed as increase in deltaTm at compound to DNA ratio of 10:1 by fluorescence thermal denaturation analysis; type: nucleic-acid assay
[4] = molecular target: Telomerase reverse transcriptase (Homo sapiens) (UniProt O14746); assay: Inhibition of telomerase activity in human HeLa cell lysate at 6.25 uM in presence of [32P]-labeled template primer by TRAP assay; type: subcellular
Quadruplex DNA [5] = assay: Binding affinity to G-quadruplex G1 DNA (unknown origin) assessed as melting temperature at compound to DNA ratio of 4:1 in presence of 100 mM K+ by circular dichroism thermal denaturation analysis (Rvb= 52.6 degC); type: nucleic-acid assay
HeLa [6] = assay: Inhibition of DNA polymerase activity in human HeLa cell lysate at 0.625 to 10 uM in presence of [32P]-labeled template primer by TRAP assay; type: subcellular
Quadruplex DNA [7] = assay: Binding affinity to G-quadruplex G2 DNA (unknown origin) assessed as change in melting temperature at compound to DNA ratio of 7:1 by fluorescence thermal denaturation analysis; type: nucleic-acid assay
[8] = molecular target: Telomerase reverse transcriptase (Homo sapiens) (UniProt O14746); assay: Inhibition of telomerase activity in human HeLa cell lysate in presence of [32P]-labeled template primer by TRAP assay; type: subcellular
Quadruplex DNA [9] = assay: Binding affinity to human G-quadruplex G1 DNA assessed as equilibrium dissociation constant at 0.5 uM incubated for 30 mins under dark condition by fluorometric titration analysis; type: nucleic-acid assay
dsDNA = assay: Binding affinity to 17 mer duplex D1 DNA (unknown origin) assessed as equilibrium dissociation constant at 0.5 uM incubated for 30 mins under dark condition by fluorometric titration analysis; type: nucleic-acid assay
Quadruplex DNA [10] = assay: Binding affinity to human G-quadruplex G1 DNA assessed as increase in fluorescence at 0.5 uM incubated for 30 mins in dark by fluorescence titration analysis relative to control; type: nucleic-acid assay
[11] = Ratio of Kd for human G-quadruplex G1 DNA to Kd for 17 mer duplex D1 DNA (unknown origin) by flourimetric titration analysis
[12] = molecular target: Telomerase reverse transcriptase (Homo sapiens) (UniProt O14746); assay: Inhibition of telomerase activity in human HeLa cell lysate at 0.156 to 2.5 uM in presence of [32P]-labeled template primer by TRAP assay; type: subcellular
[13] = molecular target: Telomerase reverse transcriptase (Homo sapiens) (UniProt O14746); assay: Inhibition of telomerase activity in human HeLa cell lysate at 5 uM in presence of [32P]-labeled template primer by TRAP assay; type: subcellular
HeLa [14] = assay: Inhibition of DNA polymerase activity in human HeLa cell lysate at 5 uM in presence of [32P]-labeled template primer by TRAP assay; type: subcellular
HeLa [15] = assay: Inhibition of DNA polymerase activity in human HeLa cell lysate at 0.156 to 2.5 uM in presence of [32P]-labeled template primer by TRAP assay; type: subcellular
HeLa [16] = assay: Inhibition of DNA polymerase activity in human HeLa cell lysate at 10 uM in presence of [32P]-labeled template primer by TRAP assay; type: subcellular
[17] = molecular target: Telomerase reverse transcriptase (Homo sapiens) (UniProt O14746); assay: Inhibition of telomerase activity in human HeLa cell lysate at 6.25 uM in presence of [32P]-labeled template primer by TRAP assay relative to control; type: subcellular
Quadruplex DNA [18] = assay: Ratio of thiazole orange Kd to compound Kd for human G-quadruplex G1 DNA at 0.5 uM incubated for 30 mins in dark by fluorimetric titration analysis; type: nucleic-acid assay
[19] = molecular target: Telomerase reverse transcriptase (Homo sapiens) (UniProt O14746); assay: Inhibition of telomerase activity in human HeLa cell lysate at 0.078 uM in presence of [32P]-labeled template primer by TRAP assay; type: subcellular
HeLa [20] = assay: Inhibition of DNA polymerase activity in human HeLa cell lysate at 6.25 uM in presence of [32P]-labeled template primer by TRAP assay relative to control; type: subcellular
[21] = molecular target: Telomerase reverse transcriptase (Homo sapiens) (UniProt O14746); assay: Inhibition of telomerase activity in human HeLa cell lysate at 10 uM in presence of [32P]-labeled template primer by TRAP assay; type: subcellular
HeLa [22] = assay: Inhibition of DNA polymerase activity in human HeLa cell lysate at 50 uM in presence of [32P]-labeled template primer by TRAP assay; type: subcellular
[23] = molecular target: Telomerase reverse transcriptase (Homo sapiens) (UniProt O14746); conditions: HeLa, Lysate, 50 uM
Description: Inhibition of telomerase activity in human HeLa cell lysate at 50 uM in presence of [32P]-labeled template primer by TRAP assay

[24] = molecular target: Telomerase reverse transcriptase (Homo sapiens) (UniProt O14746); assay: Inhibition of telomerase activity in human HeLa cell lysate at 0.625 uM in presence of [32P]-labeled template primer by TRAP assay; type: subcellular
[25] = molecular target: Telomerase reverse transcriptase (Homo sapiens) (UniProt O14746); assay: Inhibition of telomerase activity in human HeLa cell lysate at <10 uM in presence of [32P]-labeled template primer by TRAP assay; type: subcellular
HeLa [26] = assay: Inhibition of DNA polymerase activity in human HeLa cell lysate at <10 uM in presence of [32P]-labeled template primer by TRAP assay; type: subcellular
[27] = molecular target: Telomerase reverse transcriptase (Homo sapiens) (UniProt O14746); assay: Inhibition of telomerase activity in human HeLa cell lysate at <=2.5 uM in presence of [32P]-labeled template primer by TRAP assay; type: subcellular
HeLa [28] = assay: Inhibition of DNA polymerase activity in human HeLa cell lysate at <=2.5 uM in presence of [32P]-labeled template primer by TRAP assay; type: subcellular
[29] = molecular target: Telomerase reverse transcriptase (Homo sapiens) (UniProt O14746); assay: Inhibition of telomerase activity in human HeLa cell lysate at 0.039 to 10 uM in presence of [32P]-labeled template primer by TRAP assay; type: subcellular
[30] = molecular target: Telomerase reverse transcriptase (Homo sapiens) (UniProt O14746); conditions: HeLa, Lysate, 10 to 100 uM
Description: Inhibition of telomerase activity in human HeLa cell lysate at 10 to 100 uM in presence of [32P]-labeled template primer by TRAP assay

HeLa [31] = conditions: Homo sapiens, Lysate, 10 to 100 uM
Description: Inhibition of DNA polymerase activity in human HeLa cell lysate at 10 to 100 uM in presence of [32P]-labeled template primer by TRAP assay

Sequence of Telomerase reverse transcriptase (Homo sapiens) (O14746 whole entry): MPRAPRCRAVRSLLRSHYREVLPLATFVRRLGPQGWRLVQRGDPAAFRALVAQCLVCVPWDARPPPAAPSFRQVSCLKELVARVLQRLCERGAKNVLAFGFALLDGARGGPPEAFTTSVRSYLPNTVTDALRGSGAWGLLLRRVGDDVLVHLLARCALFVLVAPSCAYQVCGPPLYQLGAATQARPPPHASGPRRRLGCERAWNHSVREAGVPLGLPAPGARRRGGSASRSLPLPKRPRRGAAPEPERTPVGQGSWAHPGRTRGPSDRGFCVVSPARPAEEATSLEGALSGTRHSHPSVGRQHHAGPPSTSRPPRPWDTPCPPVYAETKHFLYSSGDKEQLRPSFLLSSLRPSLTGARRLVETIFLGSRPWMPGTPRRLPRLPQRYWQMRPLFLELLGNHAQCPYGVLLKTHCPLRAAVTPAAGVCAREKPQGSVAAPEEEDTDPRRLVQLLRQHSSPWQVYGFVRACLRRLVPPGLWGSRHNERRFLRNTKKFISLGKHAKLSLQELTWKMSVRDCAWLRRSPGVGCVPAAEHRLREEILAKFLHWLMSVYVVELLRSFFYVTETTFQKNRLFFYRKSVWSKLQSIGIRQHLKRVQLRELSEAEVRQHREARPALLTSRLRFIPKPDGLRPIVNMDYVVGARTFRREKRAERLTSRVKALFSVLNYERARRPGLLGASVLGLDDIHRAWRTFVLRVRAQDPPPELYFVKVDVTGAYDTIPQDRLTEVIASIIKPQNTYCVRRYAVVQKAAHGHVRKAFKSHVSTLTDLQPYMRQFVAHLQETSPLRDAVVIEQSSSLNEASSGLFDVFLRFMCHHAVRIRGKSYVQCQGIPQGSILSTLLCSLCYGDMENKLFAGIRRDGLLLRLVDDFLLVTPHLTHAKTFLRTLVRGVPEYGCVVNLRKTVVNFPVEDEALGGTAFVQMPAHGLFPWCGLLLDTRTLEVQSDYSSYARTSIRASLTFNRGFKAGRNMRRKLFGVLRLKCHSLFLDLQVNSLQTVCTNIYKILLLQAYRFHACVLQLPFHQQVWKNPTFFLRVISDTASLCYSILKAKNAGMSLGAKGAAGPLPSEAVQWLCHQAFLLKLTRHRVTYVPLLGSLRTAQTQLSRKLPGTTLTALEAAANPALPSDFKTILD

SMILES	Tm (Quadruplex DNA [1])	inhibition (HeLa [2])	Activity (Quadruplex DNA [3])	inhibition [4]	Tm (Quadruplex DNA [5])	fold change (FC) (Quadruplex DNA [10])	Ratio [11]	other results
C[n+]1c(/C=C2\C=CN(CC(=O)NCCN)c3ccccc32)sc2ccccc21	57.5 °C	inactive	Active	inactive	59.2 °C	–	–	–
C[n+]1c(/C=C2\C=CN(CC(=O)NCCN3CCCC3)c3ccccc32)sc2ccccc21	62.5 °C	inactive	–	Active	69.4 °C	200	0.79	inhibition (HeLa [6]): inactive; ΔTm (Quadruplex DNA [7]): 7.1 °C; EC [8]: 2.5 µM; KdH (Quadruplex DNA [9]): 0.3 µM; KdL (Quadruplex DNA [9]): 1.77 µM; Kd (dsDNA): 380 nM
C[n+]1c(/C=C2\C=CN(CC(=O)NCCCNCCCCNCCCN)c3ccccc32)sc2ccccc21	65 °C	–	–	–	71 °C	200	2.33	inhibition [12]: Active; inhibition [13]: 100%; inhibition (HeLa [14]): Active; ΔTm (Quadruplex DNA [7]): 6.9 °C; inhibition (HeLa [15]): inactive; inhibition (HeLa [16]): 100%; inhibition [17]: 100%; Ratio (Quadruplex DNA [18]): 12.4; inhibition [19]: inactive; KdH (Quadruplex DNA [9]): 0.07 µM; KdL (Quadruplex DNA [9]): 1.73 µM; inhibition (HeLa [20]): 100%; KdH (dsDNA): 0.03 µM; KdL (dsDNA): 0.65 µM; inhibition [21]: 100%
O=C1c2ccc3c4ccc5c6c(ccc(c7ccc(c2c37)C(=O)N1CCN1CCCCC1)c64)C(=O)N(CCN1CCCCC1)C5=O	–	–	–	–	–	–	–	inhibition [21]: inactive
C[n+]1c(/C=C2\C=CN(CC(=O)NCCN3CCCCC3)c3ccccc32)sc2ccccc21	56 °C	inactive	Active	Active	64 °C	200	4.18	inhibition (HeLa [6]): inactive; EC [8]: 5 µM; Kd (Quadruplex DNA [9]): 1130 nM; Kd (dsDNA): 270 nM
C[n+]1ccc(-c2c3nc(c(-c4cc[n+](C)cc4)c4ccc([nH]4)c(-c4cc[n+](C)cc4)c4ccc([nH]4)c(-c4cc[n+](C)cc4)c4nc2C=C4)C=C3)cc1	–	–	–	–	–	–	–	inhibition (HeLa [22]): Active; inhibition [23]: Active
C[n+]1c(/C=C2\C=CN(CC(=O)NCCOCCN3CCCCC3)c3ccccc32)sc2ccccc21	60.5 °C	inactive	Active	Active	64.9 °C	200	3.57	Kd (Quadruplex DNA [9]): 2180 nM; Kd (dsDNA): 710 nM
C[n+]1c(/C=C2\C=CN(CC(=O)O)c3ccccc32)sc2ccccc21	57.1 °C	inactive	–	inactive	54 °C	–	–	–
C[n+]1c(/C=C2\C=CN(CC(=O)NCCCNCCCN)c3ccccc32)sc2ccccc21	61.5 °C	inactive	Active	Active	60.5 °C	200	2.8	inhibition [24]: Active; inhibition (HeLa [16]): Active; KdH (Quadruplex DNA [9]): 0.14 µM; KdL (Quadruplex DNA [9]): 0.95 µM; KdH (dsDNA): 0.05 µM; KdL (dsDNA): 0.92 µM; inhibition [21]: Active; inhibition [25]: Active; inhibition (HeLa [26]): inactive
CN(C)c1ccc(Nc2c3ccc(NC(=O)CCN4CCCC4)cc3nc3cc(NC(=O)CCN4CCCC4)ccc23)cc1	–	–	–	–	–	–	–	inhibition [27]: Active; inhibition (HeLa [16]): Active; inhibition (HeLa [28]): inactive; inhibition [29]: Active; inhibition [21]: Active
C[n+]1c(/C=C2\C=CN(CC(=O)NCCNCCNCCN)c3ccccc32)sc2ccccc21	58.5 °C	inactive	Active	Active	62.4 °C	–	–	inhibition [24]: inactive; inhibition [21]: Active; inhibition [25]: Active; inhibition (HeLa [26]): inactive
C[n+]1c(/C=C2\C=CN(CC(=O)NCCOCCOCCOCCN)c3ccccc32)sc2ccccc21	57 °C	inactive	Active	inactive	59.4 °C	–	–	–
C[n+]1c(/C=C2\C=CN(CC(=O)NCCOCCN3CCCC3)c3ccccc32)sc2ccccc21	60.5 °C	inactive	Active	Active	59.7 °C	200	2.7	Kd (Quadruplex DNA [9]): 1650 nM; Kd (dsDNA): 610 nM
C[n+]1c(/C=C2\C=CN(CC(=O)NCCOCCN)c3ccccc32)sc2ccccc21	56 °C	inactive	Active	inactive	58.7 °C	–	–	–
C/C(=C\C(=O)Nc1ccccc1C(=O)O)c1ccc2ccccc2c1	–	–	–	–	–	–	–	inhibition [23]: Active
C[n+]1c(/C=C2\C=CN(CC(=O)NCCCCCCN)c3ccccc32)sc2ccccc21	60 °C	inactive	Active	Active	62.3 °C	–	–	–
C[n+]1c(/C=C2\C=CN(CC(=O)NCCCN)c3ccccc32)sc2ccccc21	56.5 °C	inactive	Active	inactive	60.2 °C	–	–	–
NCCCNCCCCNCCCN	–	–	–	–	–	–	–	inhibition [30]: inactive; inhibition (HeLa [31]): inactive
CN1/C(=C/c2cc[n+](C)c3ccccc23)Sc2ccccc21	60 °C	–	–	Active	63.4 °C	340	2.18	–
CN1C=C/C(=C\c2sc3ccccc3[n+]2C)c2ccccc21	–	–	–	–	–	–	–	Kd (Quadruplex DNA [9]): 870 nM; Kd (dsDNA): 400 nM
